# Active and inactive are the calls of the source. How the calls were made is not given here.
# System: rodent lifetime carcinogenesis bioassay, tumor incidence TD50
# Assay: chronic cancer bioassays in animals – CPDB, compiled studies (AID 1745844)
compound,measurement,setting,value
COc1cc(-c2ccc(N=C=O)c(OC)c2)ccc1N=C=O,TD50,"mouse, strain B6C3F1, females, in feed, site: any site (literature study), lesion: several types, types named in the paper, dosed 78 weeks, study length 103 weeks",32800 mg/kg/day (inactive)
same,TD50,"mouse, strain B6C3F1, males, in feed, site: any site (literature study), lesion: several types, types named in the paper, dosed 78 weeks, study length 103 weeks",24000 mg/kg/day (inactive)
same,TD50,"mouse, strain B6C3F1, males, in feed, site: liver, lesion: hepatocellular adenoma + hepatocellular carcinoma + neoplastic nodule, dosed 78 weeks, study length 103 weeks",12100 mg/kg/day
same,TD50,"mouse, strain B6C3F1, males, in feed, site: lung, lesion: alveolar/bronchiolar adenoma + alveolar/bronchiolar carcinoma, dosed 78 weeks, study length 103 weeks",87900 mg/kg/day
same,TD50,"rat, strain Fischer 344, females, oral dosing, site: all sites + uterus, lesion: leukemia + lymphoma + endometrial stromal polyp, dosed 78 weeks, study length 104 weeks",1450 mg/kg/day
same,TD50,"rat, strain Fischer 344, females, oral dosing, site: all sites, lesion: leukemia + lymphoma, dosed 78 weeks, study length 104 weeks",2280 mg/kg/day
same,TD50,"rat, strain Fischer 344, females, oral dosing, site: any site (literature study), lesion: several types, types named in the paper, dosed 78 weeks, study length 104 weeks",773 mg/kg/day
same,TD50,"rat, strain Fischer 344, females, oral dosing, site: ear + Zymbal's gland, lesion: sebaceous adenocarcinoma + squamous-cell carcinoma + trichoepithelioma, dosed 78 weeks, study length 104 weeks",2590 mg/kg/day
same,TD50,"rat, strain Fischer 344, females, oral dosing, site: liver, lesion: hepatocellular adenoma + hepatocellular carcinoma + neoplastic nodule, dosed 78 weeks, study length 104 weeks",17100 mg/kg/day
same,TD50,"rat, strain Fischer 344, females, oral dosing, site: uterus, lesion: endometrial stromal polyp, dosed 78 weeks, study length 104 weeks",2740 mg/kg/day
same,TD50,"rat, strain Fischer 344, males, oral dosing, site: all sites + skin of foot and toe + skin of back + skin of flank + skin, lesion: leukemia + lymphoma + keratoacanthoma + basal-cell tumor + papilloma, NOS + sebaceous adenoma + sebaceous adenoma and adenocarcinoma, dosed 78 weeks, study length 104 weeks",742 mg/kg/day
same,TD50,"rat, strain Fischer 344, males, oral dosing, site: all sites, lesion: leukemia + lymphoma, dosed 78 weeks, study length 104 weeks",1270 mg/kg/day
same,TD50,"rat, strain Fischer 344, males, oral dosing, site: any site (literature study), lesion: several types, types named in the paper, dosed 78 weeks, study length 104 weeks",809 mg/kg/day
same,TD50,"rat, strain Fischer 344, males, oral dosing, site: ear + Zymbal's gland, lesion: squamous-cell carcinoma, dosed 78 weeks, study length 104 weeks",7010 mg/kg/day
same,TD50,"rat, strain Fischer 344, males, oral dosing, site: liver, lesion: hepatocellular adenoma + hepatocellular carcinoma + neoplastic nodule, dosed 78 weeks, study length 104 weeks",6600 mg/kg/day
same,TD50,"rat, strain Fischer 344, males, oral dosing, site: skin of foot and toe + skin of back + skin of flank + skin, lesion: keratoacanthoma + basal-cell tumor + papilloma, NOS + sebaceous adenoma + trichoepithelioma, dosed 78 weeks, study length 104 weeks",1770 mg/kg/day
same,TD50,"rat, strain Fischer 344, males, oral dosing, site: skin of foot and toe + skin of back + skin of flank + skin, lesion: keratoacanthoma + basal-cell tumor + papilloma, NOS + sebaceous adenoma and adenocarcinoma + squamous-cell carcinoma + trichoepith, dosed 78 weeks, study length 104 weeks",1330 mg/kg/day
NNc1nc(-c2ccc([N+](=O)[O-])cc2)cs1,TD50,"mouse, strain Swiss, females, in feed, site: all sites, lesion: lymphocytic leukemia, dosed 46 weeks, study length 66 weeks",10.6 mg/kg/day
same,TD50,"mouse, strain Swiss, females, in feed, site: any site (literature study), lesion: several types, types named in the paper, dosed 46 weeks, study length 66 weeks",8.33 mg/kg/day
same,TD50,"mouse, strain Swiss, females, in feed, site: lung, lesion: alveolar-cell carcinoma, dosed 46 weeks, study length 66 weeks",25 mg/kg/day
same,TD50,"rat, strain Sprague-Dawley, females, in feed, site: any site (literature study), lesion: several types, types named in the paper, dosed 46 weeks, study length 75 weeks",0.743 mg/kg/day
same,TD50,"rat, strain Sprague-Dawley, females, in feed, site: forestomach, lesion: squamous-cell papilloma, dosed 46 weeks, study length 75 weeks",9 mg/kg/day
same,TD50,"rat, strain Sprague-Dawley, females, in feed, site: mammary gland, lesion: adenocarcinoma, dosed 45 weeks, study length 52 weeks",9.51 mg/kg/day
same,TD50,"rat, strain Sprague-Dawley, females, in feed, site: mammary gland, lesion: adenocarcinoma, dosed 46 weeks, study length 75 weeks",3.78 mg/kg/day
same,TD50,"rat, strain Sprague-Dawley, females, in feed, site: mammary gland, lesion: several types, types named in the paper, dosed 45 weeks, study length 52 weeks",8.66 mg/kg/day
same,TD50,"rat, strain Sprague-Dawley, females, in feed, site: mammary gland, lesion: several types, types named in the paper, dosed 46 weeks, study length 75 weeks",1.97 mg/kg/day
same,TD50,"rat, strain Sprague-Dawley, females, in feed, site: salivary gland, lesion: adenocarcinoma, dosed 45 weeks, study length 52 weeks",21.7 mg/kg/day
C=C1C(C)(C)[C@@]2(Cl)C(Cl)[C@]1(Cl)C(Cl)(Cl)C2(Cl)Cl (some centres not stated),TD50,"mouse, strain B6AKF1, males, oral dosing, site: any site (literature study), lesion: several types, types named in the paper, dosed 79 weeks, study length 79 weeks",0.75 mg/kg/day
same,TD50,"mouse, strain B6AKF1, males, oral dosing, site: liver, lesion: hepatoma, dosed 79 weeks, study length 79 weeks",0.644 mg/kg/day
same,TD50,"mouse, strain B6C3F1, females, oral dosing, site: any site (literature study), lesion: several types, types named in the paper, dosed 79 weeks, study length 79 weeks",3.37 mg/kg/day
same,TD50,"mouse, strain B6C3F1, females, oral dosing, site: lung, lesion: adenoma, dosed 79 weeks, study length 79 weeks",10.7 mg/kg/day
same,TD50,"mouse, strain B6C3F1, males, oral dosing, site: all sites, lesion: reticulum-cell sarcoma, dosed 79 weeks, study length 79 weeks",1.41 mg/kg/day
same,TD50,"mouse, strain B6C3F1, males, oral dosing, site: any site (literature study), lesion: several types, types named in the paper, dosed 79 weeks, study length 79 weeks",0.75 mg/kg/day
same,TD50,"mouse, strain B6C3F1, males, oral dosing, site: liver, lesion: hepatoma, dosed 79 weeks, study length 79 weeks",4 mg/kg/day
same,TD50,"mouse, strain B6C3F1, males, oral dosing, site: lung, lesion: adenoma, dosed 79 weeks, study length 79 weeks",8.29 mg/kg/day
CC(C)(C)c1cc(CO)cc(C(C)(C)C)c1O,TD50,"rat, strain NZBW (hooded black and white strain), females, in feed, site: any site (literature study), lesion: several types, types named in the paper, dosed 104 weeks, study length 104 weeks",3710 mg/kg/day (inactive)
same,TD50,"rat, strain NZBW (hooded black and white strain), females, in feed, site: mammary gland, lesion: fibroadenoma, dosed 104 weeks, study length 104 weeks",3710 mg/kg/day (inactive)
same,carcinogen call,"rat, strain NZBW (hooded black and white strain), males, in feed, site: any site (literature study), lesion: one or several types, types not named, dosed 104 weeks, study length 104 weeks",negative (inactive)
O=[N+]([O-])c1ccc(-c2nc(N3CCOCC3)c3ccccc3n2)s1,TD50,"rat, strain Sprague-Dawley, females, in feed, site: any site (literature study), lesion: several types, types named in the paper, dosed 46 weeks, study length 66 weeks",5.03 mg/kg/day
NC(=S)C(N)=S,TD50,"rat, strain Charles River CD (Sprague-Dawley), females, in feed, site: mammary gland, lesion: one or several types, types not named, dosed 78 weeks, study length 104 weeks",12.6 mg/kg/day
CN[C@H]1CC[C@@H](c2ccc(Cl)c(Cl)c2)c2ccccc21,TD50,"mouse, strain Charles River CD1, females, in feed, site: lung, lesion: alveolar/bronchiolar adenoma, dosed 104 weeks, study length 104 weeks",247 mg/kg/day (inactive)
same,TD50,"mouse, strain Charles River CD1, males, in feed, site: liver, lesion: hepatocellular adenoma, dosed 104 weeks, study length 104 weeks",147 mg/kg/day
same,TD50,"mouse, strain Charles River CD1, males, in feed, site: liver, lesion: hepatocellular carcinoma, dosed 104 weeks, study length 104 weeks",425 mg/kg/day
same,TD50,"rat, strain Long-Evans, females, in feed, site: thyroid gland, lesion: follicular-cell adenoma, dosed 104 weeks, study length 104 weeks",352 mg/kg/day (inactive)
c1ccc2sc(SN3CCOCC3)nc2c1,TD50,"mouse, strain B6AKF1, females, oral dosing, site: any site (literature study), lesion: several types, types named in the paper, dosed 76 weeks, study length 76 weeks",1310 mg/kg/day (inactive)
same,carcinogen call,"mouse, strain B6AKF1, females, oral dosing, site: liver, lesion: hepatoma, dosed 76 weeks, study length 76 weeks",negative (inactive)
same,carcinogen call,"mouse, strain B6AKF1, females, oral dosing, site: lung, lesion: adenoma, dosed 76 weeks, study length 76 weeks",negative (inactive)
same,carcinogen call,"mouse, strain B6AKF1, males, oral dosing, site: any site (literature study), lesion: several types, types named in the paper, dosed 76 weeks, study length 76 weeks",negative (inactive)
same,TD50,"mouse, strain B6AKF1, males, oral dosing, site: liver, lesion: hepatoma, dosed 76 weeks, study length 76 weeks",20100 mg/kg/day (inactive)
same,carcinogen call,"mouse, strain B6AKF1, males, oral dosing, site: lung, lesion: adenoma, dosed 76 weeks, study length 76 weeks",negative (inactive)
same,TD50,"mouse, strain B6C3F1, females, oral dosing, site: any site (literature study), lesion: several types, types named in the paper, dosed 76 weeks, study length 76 weeks",386 mg/kg/day (inactive)
same,TD50,"mouse, strain B6C3F1, females, oral dosing, site: liver, lesion: hepatoma, dosed 76 weeks, study length 76 weeks",1230 mg/kg/day (inactive)
same,TD50,"mouse, strain B6C3F1, females, oral dosing, site: lung, lesion: adenoma, dosed 76 weeks, study length 76 weeks",598 mg/kg/day (inactive)
same,TD50,"mouse, strain B6C3F1, males, oral dosing, site: any site (literature study), lesion: several types, types named in the paper, dosed 76 weeks, study length 76 weeks",200 mg/kg/day (inactive)
same,TD50,"mouse, strain B6C3F1, males, oral dosing, site: liver, lesion: hepatoma, dosed 76 weeks, study length 76 weeks",359 mg/kg/day (inactive)
same,TD50,"mouse, strain B6C3F1, males, oral dosing, site: lung, lesion: adenoma, dosed 76 weeks, study length 76 weeks",556 mg/kg/day (inactive)
N[C@@H](CCC(=O)NNc1ccc(CO)cc1)C(=O)O,TD50,"mouse, strain Swiss albino, females, in drinking water, site: liver, lesion: angiosarcoma, dosed 121 weeks, study length 121 weeks",2720 mg/kg/day
same,TD50,"mouse, strain Swiss albino, females, in drinking water, site: lung, lesion: adenoma, dosed 121 weeks, study length 121 weeks",3290 mg/kg/day
same,carcinogen call,"mouse, strain Swiss albino, females, in drinking water, site: lung, lesion: several types, types named in the paper, dosed 121 weeks, study length 121 weeks",negative (inactive)
same,TD50,"mouse, strain Swiss albino, males, in drinking water, site: liver, lesion: angiosarcoma, dosed 120 weeks, study length 120 weeks",2040 mg/kg/day
same,TD50,"mouse, strain Swiss albino, males, in drinking water, site: liver, lesion: hepatoma, dosed 120 weeks, study length 120 weeks",3310 mg/kg/day (inactive)
same,carcinogen call,"mouse, strain Swiss albino, males, in drinking water, site: lung, lesion: several types, types named in the paper, dosed 120 weeks, study length 120 weeks",negative (inactive)
COc1cccc2c1cc([N+](=O)[O-])c1c(C(=O)O)cc3c(c12)OCO3,TD50,"rat, strain Wistar, females, by gavage, site: forestomach, lesion: several types, types named in the paper, dosed 52 weeks, study length 69 weeks",0.0141 mg/kg/day
same,TD50,"rat, strain Wistar, females, by gavage, site: forestomach, lesion: squamous-cell carcinoma, dosed 52 weeks, study length 69 weeks",0.101 mg/kg/day
same,TD50,"rat, strain Wistar, females, by gavage, site: forestomach, lesion: squamous-cell papilloma, dosed 52 weeks, study length 69 weeks",0.0247 mg/kg/day
same,carcinogen call,"rat, strain Wistar, males, by gavage, site: forestomach, lesion: squamous-cell carcinoma, dosed 52 weeks, study length 69 weeks",positive
CN(N=O)C(=O)NCCC[C@H](N)C(=O)O,TD50,"rat, strain Wistar albino, females, i.p., site: kidney, lesion: epithelial neoplasm, dosed 26 weeks, study length 52 weeks",0.633 mg/kg/day
same,TD50,"rat, strain Wistar albino, females, i.p., site: kidney, lesion: mesenchymal neoplasm, dosed 26 weeks, study length 52 weeks",0.633 mg/kg/day
same,carcinogen call,"rat, strain Wistar albino, females, i.p., site: mammary tissue, wider than the gland, lesion: several types, types named in the paper, dosed 26 weeks, study length 52 weeks",positive
same,TD50,"rat, strain Wistar albino, females, i.p., site: pancreas, lesion: adenocarcinoma in adenomatous polyp, dosed 26 weeks, study length 52 weeks",11 mg/kg/day
same,TD50,"rat, strain Wistar albino, females, i.p., site: skin, lesion: neoplasm, dosed 26 weeks, study length 52 weeks",1.42 mg/kg/day
same,TD50,"rat, strain Wistar albino, males, i.p., site: Zymbal's gland, lesion: carcinoma, dosed 26 weeks, study length 52 weeks",11.8 mg/kg/day
same,TD50,"rat, strain Wistar albino, males, i.p., site: kidney, lesion: epithelial neoplasm, dosed 26 weeks, study length 52 weeks",1.04 mg/kg/day
same,TD50,"rat, strain Wistar albino, males, i.p., site: kidney, lesion: mesenchymal neoplasm, dosed 26 weeks, study length 52 weeks",1.57 mg/kg/day
same,TD50,"rat, strain Wistar albino, males, i.p., site: pancreas, lesion: adenocarcinoma, dosed 26 weeks, study length 52 weeks",11 mg/kg/day
same,TD50,"rat, strain Wistar albino, males, i.p., site: pancreas, lesion: several types, types named in the paper, dosed 26 weeks, study length 52 weeks",5.25 mg/kg/day
same,TD50,"rat, strain Wistar albino, males, i.p., site: skin, lesion: neoplasm, dosed 26 weeks, study length 52 weeks",1.04 mg/kg/day
